Results published in patent US12616193B2, “5-(1H-indol-3-yl)-oxazole, -oxadiazole and -furan derivatives as enhancers of sperm motility” (SPERMATECH AS, priority 2020, dated 2026).
Where two headings read alike, the source gives them in different places.

Tests used:
[1] = system: Human T-cells; assay: Genotoxicity, comet assay (Example 4); type: cell-based
Procedure: Human T-cells (four concentrations of Compound No. 1 including 0 μM; two exposure times) were embedded in 1% agarose, lysed in cold 2.5 M NaCl, 0.1 M EDTA, 10 mM Tris buffer, and 1% Triton X-100, pH 10. Incubation with dithiothreitol and lithium diiodosalicylate was followed by incubation in cold 0.3M NaOH, and 1 mM EDTA for 20 min and then electrophoresis at 0.8 V/cm for 20 min in a cold room. After neutralization with PBS, and staining with SYBRGold (Invitrogen), slides were scored using the Comet Assay IV image analysis programme (Perceptive Instruments).

[2] = system: sows; assay: Field trial study, 441 sows (Example 6); type: in vivo, pig
From the text: Following the success of the pilot study reported in Example 5, a larger field trial study was conducting which included 441 sows. 224 sows received untreated control sperm and 217 received sperm treated with Compound No. 1 (“activator”).

[3] = system: boar sperm; assay: Effect of long-term storage at 18° C. on boar sperm, activator freshly added (Example 2); type: cell-based
Procedure: The effect of Compound No. 1 (“activator”) on the shelf-life of boar sperm was evaluated. Compound No. 1 was freshly added to stored boar sperm aliquots. The sperm samples were stored as aliquots in Eppendorf tubes (995 μl) at 18° C. During the course of one week 5 μl 10 mM activator solution in DMSO (50 μM final concentration) was added to one aliquot and the resulting solution was incubated in a water bath at for 12 min at 37° C. Subsequently, 10 μl semen samples were taken out and added to a counting chamber slide, incubated for 2 min at 37° C. and analysed as described in Example 1.

[4] = system: boar sperm; assay: Determination of boar sperm motility and progressive motility by CASA (Example 1); type: cell-based, Duroc boar; conditions: for EC50: 0.2 h, 12 min at 37° C., activation-% relative to DMSO-only control
Procedure: Duroc boar sperm samples were received from Norsvin AS and contained pooled semen from three individual boars. Semen samples were stored in Androstar® extender (mini-tube) at 18° C. prior to use. Compound No. 1 was tested in duplicates, using 2-fold serial dilutions including 10 individual concentrations starting from 100 μM. 995 μL semen were aliquoted in Eppendorf tubes and 5 μL of Compound No. 1 diluted in DMSO were added leading to the described final concentrations. The resulting semen samples were mixed gently and incubated for 12 min at 37° C. in a water bath. Subsequently, 10 μL of each semen sample was added to a counting chamber slide (Leja) and incubated on a plate incubator at 37° C. Sperm motility, progressive motility and curvilinear velocity were determined using a CASA (Hamilton Thorne), starting from 14 min. For each chamber A and B 15 individual frames were analysed and motility as well as progressive motility data was read out. The data were converted into activation-% using DMSO-only controls (set to 100% activity) by determining the percental increase of either motility or progressive motility relative to the control sample without added Compound No. 1. For the determination of EC50 values, data were fitted using Prism8 (non-linear fit, absolute IC50, x is concentration, graphpad.com).

[5] = system: mice oocytes contacted with mice sperm cells; assay: In vitro fertilization, mouse (Example 3); type: cell-based
Procedure: In vitro fertilization (IVF) studies were conducted to determine whether the activator compound No. 1 has any adverse effects on the fertilization process. Male mice were sacrificed, and the epididymis was opened to release the sperm into the appropriate buffer in a petri dish. The sperm cells were incubated with 50 μM of the activator compound for one hour before an aliquot was transferred to a petri dish containing oocytes. The cells were further incubated at 37° C. and 1-cell/2-cell eggs were counted after 24 hours. The experiment was performed in duplicates using sperm from the same epididymis and oocytes from two different mice.

[6] = system: sows; assay: Field trial pilot study, artificial insemination of sows (Example 5); type: in vivo, pig
Procedure: A pilot field study included 27 sows of which 13 received untreated control sperm and 14 received sperm treated with Compound No. 1 (“activator”). Insemination doses were collected from the same animals during the course of the experiment and contained pooled semen from three individual boars. 45 μl 100 mM activator solution in DMSO was added to 89 ml boar sperm (final concentration of 50 μM) directly before insemination which was carried out within 15 to 45 min. The sperm was transferred to an insemination bottle and then the activator was added. After placing the insemination catheter into the cervix of the sow, the bottle was connected, and the sperm sample was released into the sow. The sows received insemination doses on two subsequent days. After 30 to 35 days the animals were sacrificed, the uteri were removed and embryos were counted for all […]. Organ material from 5 activator-receiving sows and 5 sows from the control group were optically inspected and samples from the uterus, cervix and vagina were formalin-fixated for histology examination. […] The formalin preparations were cut and stained with hematoxylin eosin for histological examination. The histopathological assessment included a thorough evaluation of the epithelium of the mucosa and the underlying lamina propria. In both the epithelium and lamina propria, particular emphasis was placed on acute changes. In the epithelium, the acute changes included single cell necrosis/apoptosis and infiltration of polymorphonuclear leukocytes. In the lamina propria, infiltration of polymorphonuclear leukocytes was considered as the most important acute change. […] Infiltration of lymphocytes in the epithelium and lamina propria was considered to be within the normal range of all individuals. Flattening and possibly loss of surface epithelium were partly difficult to assess. Edema and bleeding in the lamina propria were detected in several individuals. Heat and age are the denominators of leukocyte infiltration in sows and are considered normal. The average number of embryos was determined for the sows of the control group (n=11, 11 sows were in pig after insemination) and the activator-receiving group (n=13, 13 sows in pig after insemination).

[7] = 217 sows with treated sperm vs 224 sows with untreated control sperm
[8] = 50 μM added to boar sperm stored at 18° C. for 1 to 8 days, FIG. 2

`OO` [H2O2, reference compound] was tested, and the “% Tail DNA” value ([1]; Control+ treatment) was 75.4%.

For `O=C(CSc1nnc(-c2c[nH]c3ccccc23)o1)Nc1ccc2c(c1)OCO2` [Compound No. 1], the “average increase in live piglets born per sow” value [2, 7] was ~1 live piglet born per sow, the “increase in pregnancy rate” value [2, 7] was 5% and the “weaning to service interval (WSI)” value ([2]; treated vs untreated control sperm) was “improved the weaning to service interval”. The “motility of stored sperm samples” value [3, 8] was “increases motility and progressive motility, even after 7 days of storage”, the “progressive motility of stored sperm samples” value [3, 8] was “increases motility and progressive motility, even after 7 days of storage” and the “boar sperm shelf life” value ([3]; 50 μM, storage at 18° C.) was “has a positive impact on boar sperm shelf life”. The EC50 ([4]; n=6, read-out: Absolute EC50 motility) was 3.31 µM, the EC50 ([4]; n=6, read-out: absolute EC50 progressive motility) was 11.2 µM and the motility ([4]; FIG. 1B, n=4, up to 100 μM) was “increases both motility and progressive motility in a dose-dependent manner”. The progressive motility ([4]; FIG. 1B, n=4, up to 100 μM) was “increases both motility and progressive motility in a dose-dependent manner”, the “interference with the fertilization process” value ([5]; 50 μM, mouse IVF) was “does not interfere with the fertilization process” and the “fertility rates vs control” value ([5]; mouse sperm incubated with 50 μM for one hour, eggs counted after 24 hours) was “comparable to the control samples”. The “optical inspection of organ material (cervix, uteri, vaginae)” value ([6]; 5 activator-receiving sows, 30 to 35 days after insemination with sperm treated at 50 μM) was “mostly normal mucosa and no signs of lesions”, the “sows in pig after insemination” value ([6]; of 14 sows receiving sperm treated at 50 μM (control 11 of 13)) was 13 and the “sows with abundant infiltration of polymorphonuclear leukocytes mostly in the cervix and uterus” value ([6]; of five sows in the activator group (control: one sow), histology) was “Three of the five sows”. For the same molecule, the “sows with necrosis/apoptosis detected” value ([6]; of five sows in the activator-receiving group (control: one), histology) was “one of the sows”, the “pregnancy rates in the sows” value ([6]; sperm treated at 50 μM vs untreated control sperm) was “increase pregnancy rates” and the “average increase of embryos per sow” value ([6]; vs control group, embryos counted after 30 to 35 days, FIG. 5) was 2 embryos per sows. The “% Tail DNA” value ([1]; 0.5 hr exposure, 5 μM) was 0.2%, the “% Tail DNA” value ([1]; 0.5 hr exposure, 50 μM) was 0.6% and the “% Tail DNA” value ([1]; 0.5 hr exposure, 500 μM) was 0.4%. For the same molecule, the “% Tail DNA” value ([1]; 3 hr exposure, 5 μM) was 0.5%, the “% Tail DNA” value ([1]; 3 hr exposure, 50 μM) was 0.1% and the “% Tail DNA” value ([1]; 3 hr exposure, 500 μM) was 0.2%. The genotoxic effects ([1]; up to 500 μM, 0.5 and 3 hr exposure) was “No genotoxic effects”.
